Assay results from patent US8841456B2, “1,5-naphthyridine derivative or salt thereof” (FUJIFILM Corporation, priority 2011, dated 2014).

Assays:
human PI3Kα protein = target: T1, human PI3Kα protein (Homo sapiens, UniProt P42336); experiment: PI3Kα enzyme assay (ADP-Glo kinase assay); assay type: biochemical; settings: IC50 class; 3 nM PI3Kα, 50 μM PIP2, 100 μM ATP; read-out: PI3Kα Inhibitory Activity
T1 construct: purchased Carna Biosciences, Inc; host or cells: Baculovirus expression system
Method in brief: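 Baculovirus-expressed biotinylated human PI3Kα (3 nM) preincubated 15 min with compound in Tris pH 7.5, MgCl2, BSA, then reacted 60 min at 25 °C with 50 μM PIP2 and 100 μM ATP. ADP quantified by ADP-Glo luminescence; IC50 calculated.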

[1] = test system: Human colon cancer cell line (HCT116); experiment: Cell growth inhibition test (Celltiter-Glo); assay type: cell-based; settings: HCT-116, IC50 class, 72 hours culture, viable cells by Celltiter-Glo
Experimental: Evaluation of the cell proliferation inhibitory activity of the compound of the present invention was carried out according to the method below. Human colon cancer cell line (HCT116) McCoy's 5A (INVITROGEN)+Final Concentration 10% FBS+GLUTA Max (INVITROGEN) Celltiter-Glo™ Luminescent Cell Viability Assay (Promega Corporation) HCT116 was seeded on a 96-well culture microplate (Corning Inc.) at 750/well (90 uL/well), and a compound for evaluation (final concentration: 25.00 μM to 0.01 μM, 3-fold common ratio 8 points) was added thereto. After culturing in a CO2 incubator (37° C.) for 72 hours, the number of viable cells were calculated by Celltiter-Glo. For the measurement of luminescence intensity, EnVision (PerkinElmer, Inc.) was used. The inhibitory activity of the compound was calculated using IC50 (50% inhibitory concentration). The IC50 was calculated using XLfit (IDBS). The results of IC50 were evaluated according to the following evaluation criteria.

[2] = target: T2, glutathione S-transferase (GST)-fusion human ERK2 protein (Homo sapiens, UniProt P28482); experiment: ERK2 enzyme assay (LabChip mobility shift); assay type: biochemical; settings: IC50 class; 2 nM ERK2, 4.25 μM FL-Peptide 8, 43 μM ATP; read-out: ERK2 Inhibitory Activity
T2 construct: purchased Carna Biosciences, Inc; host or cells: E. coli expression system
Method in brief: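 GST-tagged human ERK2 from E. coli, at 2 nM, was preincubated 15 min at room temperature with compound in Hepes pH 7.5 with MgCl2, DTT and Brij35. The reaction ran 120 min at 25 °C with 4.25 μM FL-Peptide 8 and 43 μM ATP (final). Phosphopeptide fraction was measured by mobility-shift separation to give IC50.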

T2 sequence (P28482 whole entry, the tested form may be a part): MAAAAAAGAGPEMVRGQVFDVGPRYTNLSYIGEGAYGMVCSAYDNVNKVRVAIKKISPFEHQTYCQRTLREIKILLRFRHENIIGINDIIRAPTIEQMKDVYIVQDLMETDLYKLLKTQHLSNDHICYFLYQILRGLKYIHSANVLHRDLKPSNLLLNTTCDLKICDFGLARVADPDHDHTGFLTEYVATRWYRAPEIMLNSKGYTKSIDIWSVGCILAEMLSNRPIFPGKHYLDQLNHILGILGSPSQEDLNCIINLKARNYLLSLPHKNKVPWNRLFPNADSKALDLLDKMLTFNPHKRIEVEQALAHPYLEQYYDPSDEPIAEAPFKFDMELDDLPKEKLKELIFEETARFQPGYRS
T1 sequence (P42336 whole entry): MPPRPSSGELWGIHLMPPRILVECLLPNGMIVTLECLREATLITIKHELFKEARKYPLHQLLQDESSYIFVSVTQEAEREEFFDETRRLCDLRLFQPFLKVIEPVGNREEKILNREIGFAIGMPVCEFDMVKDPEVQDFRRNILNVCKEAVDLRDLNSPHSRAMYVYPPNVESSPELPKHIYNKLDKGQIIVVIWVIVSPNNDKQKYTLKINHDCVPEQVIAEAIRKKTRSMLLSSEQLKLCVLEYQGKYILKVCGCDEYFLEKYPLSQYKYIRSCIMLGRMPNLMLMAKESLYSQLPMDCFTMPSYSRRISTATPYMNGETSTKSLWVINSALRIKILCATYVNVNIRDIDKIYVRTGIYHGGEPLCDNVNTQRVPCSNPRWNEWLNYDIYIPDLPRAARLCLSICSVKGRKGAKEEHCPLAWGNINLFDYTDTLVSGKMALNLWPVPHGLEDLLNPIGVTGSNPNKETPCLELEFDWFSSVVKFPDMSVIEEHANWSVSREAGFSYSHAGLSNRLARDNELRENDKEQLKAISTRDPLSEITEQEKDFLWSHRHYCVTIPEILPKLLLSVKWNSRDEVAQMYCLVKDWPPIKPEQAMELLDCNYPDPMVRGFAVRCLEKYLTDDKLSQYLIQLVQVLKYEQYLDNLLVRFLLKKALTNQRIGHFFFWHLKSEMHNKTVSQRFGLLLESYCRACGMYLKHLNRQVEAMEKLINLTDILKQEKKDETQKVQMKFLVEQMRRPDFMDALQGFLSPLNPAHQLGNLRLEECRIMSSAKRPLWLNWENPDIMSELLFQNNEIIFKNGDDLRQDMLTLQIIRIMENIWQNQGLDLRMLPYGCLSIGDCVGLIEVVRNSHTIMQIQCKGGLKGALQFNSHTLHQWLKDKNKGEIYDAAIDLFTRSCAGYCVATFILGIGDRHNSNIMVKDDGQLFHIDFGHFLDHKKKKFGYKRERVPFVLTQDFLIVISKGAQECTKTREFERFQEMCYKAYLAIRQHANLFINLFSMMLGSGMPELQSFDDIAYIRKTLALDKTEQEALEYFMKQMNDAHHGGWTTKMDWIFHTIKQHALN
T1 sequence (P27986 whole entry partner): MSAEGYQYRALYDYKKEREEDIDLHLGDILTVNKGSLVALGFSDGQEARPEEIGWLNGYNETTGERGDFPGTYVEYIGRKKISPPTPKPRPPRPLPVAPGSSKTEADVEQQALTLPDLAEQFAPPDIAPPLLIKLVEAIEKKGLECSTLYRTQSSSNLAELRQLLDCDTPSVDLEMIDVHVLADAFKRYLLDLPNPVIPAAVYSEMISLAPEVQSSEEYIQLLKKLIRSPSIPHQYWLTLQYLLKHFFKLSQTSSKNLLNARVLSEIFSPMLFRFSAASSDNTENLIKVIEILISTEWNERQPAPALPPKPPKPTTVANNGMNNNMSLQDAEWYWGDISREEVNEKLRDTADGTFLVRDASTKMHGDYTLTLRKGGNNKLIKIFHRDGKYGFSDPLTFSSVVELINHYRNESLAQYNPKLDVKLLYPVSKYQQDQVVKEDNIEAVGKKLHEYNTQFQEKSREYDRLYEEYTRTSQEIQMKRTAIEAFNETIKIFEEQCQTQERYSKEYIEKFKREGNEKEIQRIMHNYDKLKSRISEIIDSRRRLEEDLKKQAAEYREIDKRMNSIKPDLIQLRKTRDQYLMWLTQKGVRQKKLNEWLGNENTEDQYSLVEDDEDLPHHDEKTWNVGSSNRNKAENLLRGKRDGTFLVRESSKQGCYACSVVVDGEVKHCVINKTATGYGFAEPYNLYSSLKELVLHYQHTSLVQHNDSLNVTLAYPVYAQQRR

| SMILES | IC50 (human PI3Kα protein) [nM] | IC50 [1] [nM] | IC50 [2] [nM] |
| --- | --- | --- | --- |
| O=C(Nc1ccc2ncc(-c3cccc(CO)c3)cc2n1)NC1CCCC1 [Compound 0041] | 100 to 1000 | 1000 to 10000 | < 100 |
| O=C(Nc1ccc2ncc(N3CCN(c4ccccn4)CC3)cc2n1)NC1CCCC1 [Compound 0154] | 100 to 1000 | < 1000 | 100 to 1000 |
| CCCC(C)(C)NC(=O)Nc1ccc2ncc(-c3cnn(CCCN4CCOCC4)c3)cc2n1 [Compound 0182] | < 100 | < 1000 | < 100 |
| COc1nc2ccc(NC(=O)NC3CCCC3)nc2cc1-c1cnn(C)c1 [Compound 0234] | 1000 to 10000 |  | > 10000 |
| Cc1nc2ccc(NC(=O)NC3CCCC3)nc2cc1-c1cnn(C)c1 [Compound 0236] | 100 to 1000 |  | > 10000 |
| Cn1cncc1-c1cnc2ccc(NC(=O)NC3CCCC3)nc2c1 [Compound 0238] | 100 to 1000 |  | < 100 |
| COC1CN(c2cnc3ccc(NC(=O)NC4CCCC4)nc3c2)C1 [Compound 0242] | 100 to 1000 |  | 100 to 1000 |
| CN(C)CC(C)(C)Cn1cc(-c2cnc3ccc(NC(=O)NC4CCCC4)nc3c2)cn1 [Compound 0243] | < 100 | < 1000 | 100 to 1000 |
| O=C(Nc1ccc2ncc(-c3cnn(CCCN4CC[C@@H](F)C4)c3)cc2n1)NC1CCCC1 [Compound 0248] | < 100 |  | < 100 |
| CC(=O)OCCCCn1cc(-c2cnc3ccc(NC(=O)NC4CCCC4)nc3c2)cn1 [Compound 0249] | < 100 |  | < 100 |
| O=C(NCCCCc1ccccc1)Nc1ccc2ncc(Nc3cn[nH]c3)cc2n1 [Compound 0250] | < 100 |  | < 100 |
| Cn1cc(-c2cnc3ccc(NC(=S)NC(=O)c4ccccc4)nc3c2)cn1 [Compound 0251] | 100 to 1000 |  | 100 to 1000 |
| O=C(NCC1C[C@@H]2CC[C@H]1C2)Nc1ccc2ncc(-c3cnn(CCN4CCNCC4)c3)cc2n1 (some centres unmarked) [Compound 0252] | 100 to 1000 |  | 100 to 1000 |
| CC1(NC(=O)Nc2ccc3ncc(N4CCOCC4)cc3n2)CCCC1 [Compound 0253] | < 100 |  | < 100 |
| CC1(NC(=O)Nc2ccc3ncc(-c4cnn(C5CCNCC5)c4)cc3n2)CCCC1 [Compound 0254] | < 100 |  | 100 to 1000 |
| CN1CCC(n2cc(-c3cnc4ccc(NC(=O)NC5(C)CCCC5)nc4c3)cn2)CC1 [Compound 0255] | < 100 | < 1000 | 100 to 1000 |
| CC1(NC(=O)Nc2ccc3ncc(-c4cnn(CCCN5CCNCC5)c4)cc3n2)CCCC1 [Compound 0256] | < 100 |  | 100 to 1000 |
| CN1CCN(CCCn2cc(-c3cnc4ccc(NC(=O)NC5(C)CCCC5)nc4c3)cn2)CC1 [Compound 0257] | < 100 |  | 100 to 1000 |
| CN(C)CCCn1cc(-c2cnc3ccc(NC(=O)NC4(C)CCCC4)nc3c2)cn1 [Compound 0258] | < 100 |  | 100 to 1000 |
| O=C(Nc1ccc2ncc(-n3ccnc3)cc2n1)NC1CCCC1 [Compound 0259] | 100 to 1000 |  | < 100 |

Next, values leading:

| IC50 (human PI3Kα protein) [nM] | IC50 [1] [nM] | IC50 [2] [nM] | SMILES |
| --- | --- | --- | --- |
| < 100 | 1000 to 10000 | 100 to 1000 | O=C(Nc1ccc2ncc(N3CCOC3=O)cc2n1)NC1CCCC1 [Compound 0046] |
| < 100 | 1000 to 10000 | < 100 | O=C(Nc1ccc2ncc(-c3ccccn3)cc2n1)NC1CCCC1 [Compound 0136] |
| < 100 | 1000 to 10000 | 100 to 1000 | CC(=O)N1CCN(c2cnc3ccc(NC(=O)NC4CCCC4)nc3c2)CC1 [Compound 0148] |
| < 100 | < 1000 | 100 to 1000 | O=C(Nc1ccc2ncc(N3CCN(c4cccnc4)CC3)cc2n1)NC1CCCC1 [Compound 0157] |
| < 100 | < 1000 | 100 to 1000 | O=C(Nc1ccc2ncc(N3CCN(c4ccncc4)CC3)cc2n1)NC1CCCC1 [Compound 0158] |
| < 100 |  | 1000 to 10000 | Cn1cc(-c2cc3nc(NC(=O)NC4CCCC4)ccc3nc2N)cn1 [Compound 0227] |
| < 100 |  | < 100 | CN1CCC(n2cc(-c3cnc4ccc(NC(=O)NC5CCCC5)nc4c3)cn2)CC1 [Compound 0228] |
| < 100 |  | 100 to 1000 | CCCN1CCC(n2cc(-c3cnc4ccc(NC(=O)NC5CCCC5)nc4c3)cn2)CC1 [Compound 0229] |
| < 100 |  | 100 to 1000 | CCN1CCC(n2cc(-c3cnc4ccc(NC(=O)NC5CCCC5)nc4c3)cn2)CC1 [Compound 0230] |
| < 100 |  | 100 to 1000 | CC(C)N1CCC(n2cc(-c3cnc4ccc(NC(=O)NC5CCCC5)nc4c3)cn2)CC1 [Compound 0231] |
| < 100 |  | < 100 | CN1CCN(CCCn2cc(-c3cnc4ccc(NC(=O)NC5CCCC5)nc4c3)cn2)CC1 [Compound 0232] |
| < 100 |  | < 100 | CCN1CCN(CCCn2cc(-c3cnc4ccc(NC(=O)NC5CCCC5)nc4c3)cn2)CC1 [Compound 0233] |
| < 100 |  | < 100 | COc1c(-c2cnn(C)c2)cnc2ccc(NC(=O)NC3CCCC3)nc12 [Compound 0235] |
| < 100 |  | < 100 | Cc1c(-c2cnn(C)c2)cnc2ccc(NC(=O)NC3CCCC3)nc12 [Compound 0237] |
| < 100 |  | < 100 | O=C(Nc1ccc2ncc(-c3cnco3)cc2n1)NC1CCCC1 [Compound 0239] |
| < 100 |  | 100 to 1000 | O=C(Nc1ccc2ncc(N3CC(OCCCN4CCOCC4)C3)cc2n1)NC1CCCC1 [Compound 0240] |
| < 100 |  | 100 to 1000 | O=C(Nc1ccc2ncc(N3CC(OCCN4CCOCC4)C3)cc2n1)NC1CCCC1 [Compound 0241] |
| < 100 |  | < 100 | C[C@H](CN(C)C)Cn1cc(-c2cnc3ccc(NC(=O)NC4CCCC4)nc3c2)cn1 [Compound 0244] |
| < 100 |  | 100 to 1000 | C[C@@H](CN(C)C)Cn1cc(-c2cnc3ccc(NC(=O)NC4CCCC4)nc3c2)cn1 [Compound 0245] |
| < 100 |  | < 100 | O=C(Nc1ccc2ncc(-c3cnn(CCCN4CCCC4)c3)cc2n1)NC1CCCC1 [Compound 0246] |
| < 100 |  | < 100 | O=C(Nc1ccc2ncc(-c3cnn(CCCN4CC[C@H](F)C4)c3)cc2n1)NC1CCCC1 [Compound 0247] |
